Laboratory results from patent US20230127258A1, “COMPOSITION COMPRISING THROMBIN DERIVED PEPTIDES AND USE THEREOF” (In2Cure AB, priority 2019, published 2023).

Legend:
[1] = test system: S. aureus, P. aeruginosa and E. coli; assay: MIC and MBC of TCP-25 with EDTA, text summary for all three bacterial strains (FIG. 20B-C); assay type: cell-based
Method: The minimal inhibitory concentration (MIC) was conducted according to standard protocol (Wiegand et al., 2008). A 1% bacterial solution was diluted 1:1000 times in 2×BBL™ Mueller Hinton (MH) II, cation adjusted broth (Becton, Dickinson and Company, Sparks, USA). […] Next, 50 μl of the bacterial solution was added. MH broth without bacteria was used as a sterile control, whereas supplemented only with bacteria as growth control. […] MIC was assessed as the lowest concentration of treatment that prevents visual bacterial growth in the wells. The MIC plates were then used to determine the minimal bactericidal concentration (MBC) for the various treatments. This was conducted by resuspending the solution in each well with a pipette and then plating 10 μl droplets on a THA plates which were then incubated in 37° C. overnight. MBC was established at concentration at which no bacterial colonies were observed.

[2] = test system: LPS / TLR4- and TLR2-induced NF-kB activation; conditions: cited from earlier work
[3] = test system: P. aeruginosa-induced sepsis and LPS-mediated shock; conditions: mouse models of endotoxic shock; cited from earlier work

Compound	antibacterial effect of EDTA alone [1]	anti-endotoxic functions [2]	mortality [3]
O=C(O)CN(CCN(CC(=O)O)CC(=O)O)CC(=O)O [EDTA, ethylenediaminetetraacetic acid]	some bacteriostatic effect	–	–
HVFRLKKWIQKVIDQFGE (TCP-25 fragment; PEPTIDE (1)..(18) TCP-25 fragment) [HVF18]	–	anti-endotoxic functions in vitro and in vivo	reduce mortality
